Results published in patent US5041567A, “Antibacterial monic acid derivatives” (Beecham Group plc, priority 1982, dated 1991).
Converted amounts (≈) assume the structure as drawn. Read-outs that look alike come from different tables or passages of the source.

Tests used:
[1] = test system: M. pneumoniae ATCC 15492; experiment: MIC against mycoplasma in vitro; format: cell-based; details: Mycoplasmoides pneumoniae, ATCC15492, 144 h
[2] = test system: Past. multocida PA1; experiment: MIC against veterinary bacteria in vitro; details: Pasteurella multocida, PA1, 18 h
Method: (§1) The activity of the compounds of the Examples against various veterinarily important bacteria, was assayed in vitro using two-fold serial dilutions in Diagnostic Sensitivity Test Agar inoculated with 10^4 organisms.

[3] = test system: M. suipneumoniae NCTC 10110; experiment: MIC against mycoplasma in vitro; format: cell-based; details: Mesomycoplasma hyopneumoniae, NCTC10110, 144 h
[4] = test system: M. hyosynoviae ATCC 25591; experiment: MIC against mycoplasma in vitro; format: cell-based; details: 144 h
[5] = test system: Strep. agalactiae 2788-B; experiment: MIC against human bacteria in vitro; format: cell-based; details: Streptococcus agalactiae; Strep. agalactiae 2788-B; 5% chocolated horse blood agar, 18 hours; read-out: MIC
[6] = test system: Pasteurella multocida 1633; experiment: MIC against human bacteria in vitro; format: cell-based
[7] = test system: Sarcina lutea 8340; experiment: MIC against human bacteria in vitro; format: cell-based; details: Micrococcus luteus; Sarcina lutea 8340; 5% chocolated horse blood agar, 18 hours; read-out: MIC
[8] = test system: Strep. suis (group D) SPS11; experiment: MIC against veterinary bacteria in vitro; details: Streptococcus suis, 18 h
Method: as §1

[9] = test system: M. hyorhinis ATCC 25021; experiment: MIC against mycoplasma in vitro; format: cell-based; details: Mesomycoplasma hyorhinis, ATCC25021, 144 h
[10] = test system: S. dublin S7; experiment: MIC against veterinary bacteria in vitro; details: Salmonella enterica, S7, 18 h
Method: as §1

[11] = test system: M. suipneumoniae ATCC 25095; experiment: MIC against mycoplasma in vitro; format: cell-based; details: Mesomycoplasma hyopneumoniae, ATCC25095, 144 h
[12] = test system: E. coli ESS; experiment: MIC against human bacteria in vitro; format: cell-based; details: Escherichia coli; E. coli ESS; 5% chocolated horse blood agar, 18 hours; read-out: MIC
[13] = test system: Strep. pneumoniae CN33; experiment: MIC against human bacteria in vitro; format: cell-based; details: Streptococcus pneumoniae; Strep. pneumoniae CN33; 5% chocolated horse blood agar, 18 hours; read-out: MIC
[14] = test system: Corynebacterium xerosis 9755; experiment: MIC against human bacteria in vitro; format: cell-based; details: Corynebacterium xerosis 9755; 5% chocolated horse blood agar, 18 hours; read-out: MIC
[15] = test system: Staph. aureus Oxford; experiment: MIC against veterinary bacteria in vitro; details: Staphylococcus aureus, 18 h
Method: as §1

[16] = test system: M. dispar NCTC 10125; experiment: MIC against mycoplasma in vitro; format: cell-based; details: 144 h
[17] = test system: M. suipneumoniae PW/C/210; experiment: MIC against mycoplasma in vitro; format: cell-based; details: Mesomycoplasma hyopneumoniae, 144 h
[18] = test system: Past. multocida PA2; experiment: MIC against veterinary bacteria in vitro; details: Pasteurella multocida, PA2, 18 h
Method: as §1

[19] = test system: Bacillus subtilis 6633; experiment: MIC against human bacteria in vitro; format: cell-based; details: Bacillus subtilis 6633; 5% chocolated horse blood agar, 18 hours; read-out: MIC
[20] = test system: Staph. aureus W2827; experiment: MIC against human bacteria in vitro; format: cell-based; details: Staphylococcus aureus
[21] = test system: Staph. aureus B4 (pen. resistant); experiment: MIC against veterinary bacteria in vitro; details: Staphylococcus aureus, 18 h
Method: as §1

[22] = test system: Haemophilus influenzae Wy21; experiment: MIC against human bacteria in vitro; format: cell-based; details: Haemophilus influenzae Wy21; 5% chocolated horse blood agar, 18 hours; read-out: MIC
[23] = test system: M. hyorhinis ATCC 23234; experiment: MIC against mycoplasma in vitro; format: cell-based; details: Mesomycoplasma hyorhinis, ATCC23234, 144 h
[24] = test system: M. suipneumoniae JF 435; experiment: MIC against mycoplasma in vitro; format: cell-based; details: Mesomycoplasma hyopneumoniae, JF435, 144 h
[25] = test system: Staph. aureus Russell; experiment: MIC against human bacteria in vitro; format: cell-based; details: Staphylococcus aureus
[26] = test system: Bord. bronchiseptica B08; experiment: MIC against veterinary bacteria in vitro; details: Bordetella bronchiseptica, B08, 18 h
Method: as §1

[27] = test system: Erysipelothrix rhusiopathiae NCTC 8163; experiment: MIC against veterinary bacteria in vitro; details: Erysipelothrix rhusiopathiae, NCTC8163, 18 h
Method: as §1

[28] = test system: Past. haemolytica PA5; experiment: MIC against veterinary bacteria in vitro; details: Mannheimia haemolytica, PA5, 18 h
Method: as §1

[29] = test system: M. suipneumoniae UCD 1; experiment: MIC against mycoplasma in vitro; format: cell-based; details: Mesomycoplasma hyopneumoniae, UCD1, 144 h
[30] = test system: Corynebacterium pyogenes CY1; experiment: MIC against veterinary bacteria in vitro; details: CY1, 18 h
Method: as §1

[31] = test system: Strep. agalactiae SPA1; experiment: MIC against veterinary bacteria in vitro; details: Streptococcus agalactiae, SPA1, 18 h
Method: as §1

[32] = test system: Staph. aureus Oxford; experiment: MIC against human bacteria in vitro; format: cell-based; details: Staphylococcus aureus; Staph. aureus Oxford; 5% chocolated horse blood agar, 18 hours; read-out: MIC
[33] = test system: M. suipneumoniae LABER; experiment: MIC against mycoplasma in vitro; format: cell-based; details: Mesomycoplasma hyopneumoniae, 144 h
[34] = test system: M. suipneumoniae J2206/183^b; experiment: MIC against mycoplasma in vitro; format: cell-based; details: Mesomycoplasma hyopneumoniae, 144 h
[35] = test system: M. suipneumoniae HK(2); experiment: MIC against mycoplasma in vitro; format: cell-based; details: Mesomycoplasma hyopneumoniae, 144 h

| SMILES | MIC [2] | MIC [3] | MIC [5] | MIC [7] | MIC [8] | MIC [10] | MIC [12] | MIC [13] | MIC [14] | MIC [15] | MIC [16] | MIC [18] | MIC [19] | MIC [22] | MIC [26] | MIC [27] | MIC [28] | MIC [29] | MIC [30] | MIC [31] | other results |
| --- | --- | --- | --- | --- | --- | --- | --- | --- | --- | --- | --- | --- | --- | --- | --- | --- | --- | --- | --- | --- | --- |
| C/C(=C\c1ncc(-c2cccc(C#N)c2)o1)C[C@@H]1OC[C@H](C[C@@H]2O[C@H]2[C@@H](C)[C@H](C)O)[C@@H](O)[C@H]1O [Example 5, 5-m-cyanophenyl-2-(1-normon-2-yl)oxazole A] | 5 mg/L (≈ 10.7 µM) | 0.1 mg/L (≈ 0.213 µM) | 2.5 mg/L (≈ 5.34 µM) | > 50 mg/L | 10 mg/L (≈ 21.3 µM) | > 80 mg/L | 1.2 mg/L (≈ 2.56 µM) | 2.5 mg/L (≈ 5.34 µM) | > 50 mg/L | 0.625 mg/L (≈ 1.33 µM) | 0.025 mg/L (≈ 0.0534 µM) | 2.5 mg/L (≈ 5.34 µM) | 1.2 mg/L (≈ 2.56 µM) | 1.2 mg/L (≈ 2.56 µM) | 80 mg/L (≈ 171 µM) | 80 mg/L (≈ 171 µM) | 40 mg/L (≈ 85.4 µM) | 0.1 mg/L (≈ 0.213 µM) | 80 mg/L (≈ 171 µM) | 0.625 mg/L (≈ 1.33 µM) | MIC [1]: 0.25 mg/L (≈ 0.534 µM); MIC [4]: 0.25 mg/L (≈ 0.534 µM); MIC ([6]; Pasteurella multocida, 1633, 18 h): 5 mg/L (≈ 10.7 µM); MIC ([9]; M. hyorhinis ATCC 25021, 6 days, 37° C., read-out: MIC): 0.05 mg/L (≈ 0.107 µM); MIC ([11]; M. suipneumoniae ATCC 25095, 6 days, 37° C., read-out: MIC): 0.05 mg/L (≈ 0.107 µM); MIC ([17]; M. suipneumoniae PW/C/210, 6 days, 37° C., read-out: MIC): 0.05 mg/L (≈ 0.107 µM); MIC ([20]; W2827, 18 h): 5 mg/L (≈ 10.7 µM); MIC [21]: 1.25 mg/L (≈ 2.67 µM); MIC ([23]; M. hyorhinis ATCC 23234, 6 days, 37° C., read-out: MIC): 0.05 mg/L (≈ 0.107 µM); MIC ([24]; M. suipneumoniae JF 435, 6 days, 37° C., read-out: MIC): 0.1 mg/L (≈ 0.213 µM); MIC ([25]; 18 h): 5 mg/L (≈ 10.7 µM); MIC [32]: 1.2 mg/L (≈ 2.56 µM); MIC ([33]; M. suipneumoniae LABER, 6 days, 37° C., read-out: MIC): 0.05 mg/L (≈ 0.107 µM); MIC ([34]; M. suipneumoniae J2206/183^b, 6 days, 37° C., read-out: MIC): 0.1 mg/L (≈ 0.213 µM) |
| C/C(=C\c1ncc(-c2cccc([N+](=O)[O-])c2)o1)C[C@@H]1OC[C@H](C[C@@H]2O[C@H]2[C@@H](C)[C@H](C)O)[C@@H](O)[C@H]1O [Example 6, 5-m-nitrophenyl-2-(1-normon-2-yl)oxazole A] | 10 mg/L (≈ 20.5 µM) | 0.05 mg/L (≈ 0.102 µM) | 4 mg/L (≈ 8.19 µM) | > 128 mg/L | 10 mg/L (≈ 20.5 µM) | > 80 mg/L | 16 mg/L (≈ 32.8 µM) | 4 mg/L (≈ 8.19 µM) | > 128 mg/L | 1.25 mg/L (≈ 2.56 µM) | 0.025 mg/L (≈ 0.0512 µM) | 1.25 mg/L (≈ 2.56 µM) | 2 mg/L (≈ 4.09 µM) | 2 mg/L (≈ 4.09 µM) | 80 mg/L (≈ 164 µM) | > 80 mg/L | 80 mg/L (≈ 164 µM) | 0.05 mg/L (≈ 0.102 µM) | > 80 mg/L | 2.5 mg/L (≈ 5.12 µM) | MIC ([1]; M. pneumoniae ATCC 15492, 6 days, 37° C., read-out: MIC): 1 mg/L (≈ 2.05 µM); MIC ([4]; M. hyosynoviae ATCC 25591, 6 days, 37° C., read-out: MIC): 0.5 mg/L (≈ 1.02 µM); MIC [35]: 0.05 mg/L (≈ 0.102 µM); MIC ([6]; Pasteurella multocida 1633, 5% chocolated horse blood agar, 18 hours, read-out: MIC): 16 mg/L (≈ 32.8 µM); MIC [9]: 0.025 mg/L (≈ 0.0512 µM); MIC [11]: 0.05 mg/L (≈ 0.102 µM); MIC [17]: 0.025 mg/L (≈ 0.0512 µM); MIC ([20]; Staph. aureus W2827, 5% chocolated horse blood agar, 18 hours, read-out: MIC): 16 mg/L (≈ 32.8 µM); MIC [23]: 0.025 mg/L (≈ 0.0512 µM); MIC [24]: 0.05 mg/L (≈ 0.102 µM); MIC ([25]; Staph. aureus Russell, 5% chocolated horse blood agar, 18 hours, read-out: MIC): 16 mg/L (≈ 32.8 µM); MIC [32]: 8 mg/L (≈ 16.4 µM); MIC [33]: 0.05 mg/L (≈ 0.102 µM); MIC [34]: 0.05 mg/L (≈ 0.102 µM) |
